Entries after “also recorded” stand apart in the source; their conditions may differ. Peptide text beside a SMILES is read from it.
Assays:
[1] = FTIR spectroscopy of secondary structure; assay type: physicochemical; settings: followed for 6 hours
Protocol: Following previous approaches^11,54, peptide samples were applied to the FTIR sample holder at 298.15 K. InfraRed spectra were recorded on a Bruker Tensor 27 infrared spectrophotometer (Bruker Optik GmbH, Ettlingen, Germany) equipped with a Bio-ATR II accessory. The spectrophotometer was continuously purged with dried air. Spectra were recorded at a spectral resolution of 4 cm^−1 and 120 accumulations were performed per measurement. The final spectra were corrected to the baseline (the final incubation buffer) and rescaled in the amide I area (˜1600 to ˜1700 cm^−1).
The formation of aggregates by STVIIE quickly leads the larger elements to deposit from solution. This hinders circular dichroism studies of STVIIE secondary structure. For this reason Fourier transform infra-red (FTIR) spectroscopy was used instead (FIG. 3f-g). The changes in secondary structure content were followed for 6 hours (FIG. 3f). Then, after 6 hours, when amyloid structures are readily visible (FIG. 3a), the experiment was terminated. This time frame is also chosen given that for nanotechnology applications short incubation periods can be necessary and/or preferable. The peptides spectra are consistent with antiparallel β-sheet/aggregated strands (1675-1695 cm^−1) and β-sheet (1625-1640 cm^−1) secondary structure being present (FIG. 3f). […]

[2] = test system: Human H4 neuroglioma cells; experiment: LDH release cytotoxicity assay
[3] = Atomic force microscopy of amyloid fibril formation, morphology and dimensions; assay type: physicochemical; settings: AFM, 2 weeks incubation at physiologic pH
Description: According to experimental procedures at the host lab^57-59, the samples were placed in poly-1-lysine slides and dried using a vacuum chamber. When fully dried, the samples were rinsed with ultra-pure water and dried with a gentle N2 air flux. A NanoWizard II atomic force microscope (JPK Instruments, Berlin, Germany), mounted on the top of an Axiovert 200 inverted optical microscope (Zeiss, Jena, Germany), was used for the microscopic experiments. The AFM head is equipped with a 5.85-μm z-range linearized piezoelectric scanner and an infrared laser. For the acquisition of the different AFM images, it was used a ACL-50 tip (Applied NanoStructures, Inc., California, USA) with a spring constant between 20-95 N/m and a frequency between 145-230 kHz. Amyloid fibrils were acquired in intermittent (air) mode with a setpoint of between 0.4-0.5 V, a line rate of 0.7-0.8 Hz, an IGain of 20-50 Hz and a PGain of 0.001-0.004. The images acquired were treated afterwards with the JPKSPM Data Processing (JPK Instruments, Berlin, Germany).
The most promising amyloidogenic peptide is typically selected. For this purpose, atomic force microscopy (AFM) was employed. AFM is a technique that can be very useful in the acquisition of surface images with high resolution and sensibility, being therefore suitable for such studies of amyloid fibrils and employed in this analysis. […] Regarding GNNQQNY (FIG. 2, first row from the top), at the start of incubation there are no visible structures. At the end of the incubation period tested (2 weeks), heterogeneous structures are visible. […] In contrast, QVQIIE, ISFLIF and STVIIE peptides show amyloid morphologies at the end of the incubation period tested (FIG. 2). […] This is consistent with the β-sheet content of QVQIIE and ISFLIF at the end of the incubation period, measured via Fourier transform infrared spectroscopy (FIG. 12) and binding profile to Congo Red (FIG. 13). […] As for STVIIE, it forms clear fibril structures in the conditions tested. […]

[4] = Sample preparation: highest concentration at which the peptide fully dissolves; assay type: physicochemical; settings: for highest final concentration that they were able to be fully dissolved: 50 mM Tris-HCl pH 7.5, 5 mM EDTA buffer, room temperature
Protocol: STVIIE, GNNQQNY, QVQIIE and ISFLIF were prepared at the highest final concentration that they were able to be fully dissolved, respectively 1 mg/mL (STVIIE and GNNQQNY), 0.55 mg/mL (QVQIIE) and 0.1 mg/mL (ISFLIF). For all peptide samples the final incubation buffer was 50 mM Tris-HCl pH 7.5, 5 mM EDTA buffer. Briefly, after weighing the peptide, half of the final volume of H2O ultrapure was added. A short vortex of approximately 1500 rpm and 30 seconds and an ultrasound bath of 280 seconds in water/ice were performed two times. The other half of the final volume was then added, containing 100 mM Tris-HCl pH 7.5, 10 mM EDTA buffer was added, with the peptide samples being therefore in the final incubation buffer. Before incubation, two other cycles of vortex and ultrasound bath were performed. The final peptide solution sample was incubated at room temperature.

streptavidin = streptavidin (Streptomyces avidinii, UniProt P22629); experiment: Binding to free streptavidin by intrinsic tryptophan fluorescence; settings: 0.8 μM streptavidin
Description: In terms of secondary structure, evaluated via Fourier Transform Infra Red (FITR) spectroscopy (FIG. 5b), the observations echo the results obtained with (non-biotinylated) STVIIE fibrils (confront with FIG. 3f). Addition, via a PEG9 linker, of a biotin moiety to STVIIE N-terminus results in biotin functionalized STVIIE amyloid fibrils. These fibrils show both the […] and the antiparallel cross β-sheet peaks, being quite similar to the spectra obtained with free (non-biotinylated) STVIIE. Then, the activity of the bioactive molecule (biotin) attached to the fibrils was tested, namely the ability to bind its target bridge element molecule (streptavidin), when free in solution (FIG. 5c-g). […] Briefly, the fluorescence intensity spectra of 0.8 μM streptavidin in solution, treated with buffer (FIG. 5c, leftmost graph), free biotin (FIG. 5c, second graph from the left), non-biotinylated free amyloid peptide (FIG. 5c, third from the left) or biotinylated amyloidogenic peptide fibrils (FIG. 5c, rightmost graph) were compared. A drop on the fluorescence signal (decreased quantum yield) accompanied by peak shifting towards the left (blue shift) indicates streptavidin binding to biotin (FIG. 5c). […] The addition of biotinylated peptide to streptavidin produces a similar blue shift of the fluorescence emission maximum (from 340 to 330 nm), as observed when free biotin is added. […]

With `CC[C@H](C)[C@H](NC(=O)[C@@H](NC(=O)[C@@H](NC(=O)[C@@H](N)CO)[C@@H](C)O)C(C)C)C(=O)N[C@H](C(=O)N[C@@H](CCC(=O)O)C(=O)O)[C@@H](C)CC` [STVIIE] (H-STVIIE-OH; N-terminus and C-terminus assumed) as the compound, how does the “time for relative ratio of β-sheet secondary structure to stabilize” value [1] read?
Its value is “less than 3 hours”.

And the “toxicity to cells (LDH release)” value ([2]; fibrils at 0.2, 2 and 20 μM, 6 and 24 hours)?
The value was “not toxic; also recorded: not cytotoxic”.

What does the source list for GNNQQNY [short amyloidogenic peptide]?
morphology at end of incubation [3]: not consistent with the well-defined amyloid fibril morphology; highest final concentration that they were able to be fully dissolved [4]: 1 mg/mL

With `O=C(O)CCCC[C@@H]1SC[C@@H]2NC(=O)N[C@@H]21` [biotin, 5-[(3aS,4S,6aR)-2-oxohexahydro-1H-thieno[3,4-d]imidazol-4-yl]pentanoic acid] as the compound, how does the “concentration at which the peak shift achieves saturation” value (streptavidin) read?
The value was ~4 µM.

And the “blue shift of streptavidin fluorescence emission peak maximum” value (streptavidin; peptide and/or biotin 0 to 13.6 μM)?
Its value is 10 nm.

Which cell death ([2]; 0.2, 2.0 and 20 μM, 6 to 24 hours, buffer control 10-15%) does the source give for Triton [reference compound] here?
Its cell death is 100%.

For QVQIIE, which “morphology at end of incubation” value [3] is on record?
Its value is “amyloid-like gel structure”.

And the “highest final concentration that they were able to be fully dissolved” value [4]?
The value was 0.55 mg/mL.

For “Aβ(1-42): Amyloid β peptide (involved in Alzheimer's disease), positive control of fibrillization [reference compound]”, which “morphology at end of incubation” value [3] is on record?
The value was “form typical amyloid fibrils”.

For `CC[C@H](C)[C@H](N)C(=O)N[C@@H](CO)C(=O)N[C@@H](Cc1ccccc1)C(=O)N[C@@H](CC(C)C)C(=O)N[C@H](C(=O)N[C@@H](Cc1ccccc1)C(=O)O)[C@@H](C)CC` [ISFLIF] (H-ISFLIF-OH; N-terminus and C-terminus assumed), which “solubility in physiological conditions” value ([4]; physiological conditions) is on record?
Its value is “difficult to dissolve at high concentrations”.

From US20230184756A1, “BIOMATERIALS” (INSTITUTO DE MEDICINA MOLECULAR JOÃO LOBO ANTUNES, priority 2020, published 2023)
